Results as given in article PMC9728921, “Characterization of a KDM5 small molecule inhibitor with antiviral activity against hepatitis B virus” (PLOS ONE, 2022).
“Also recorded” adds a separate entry of the source.

Assays:
[1] = system: HBV cccDNA; assay: cccDNA levels by Southern blot in HBV-infected PHH; type: cell-based, Hepatitis B virus; conditions: 1 or 10 µM every three to four days for 14 days
Procedure: PHH were plated in 24-well plates at 350,000–400,000 live cells per well and infected with HBV genotype D as described above. […] DNA was isolated from PHH using a MasterPure Complete DNA Purification kit (Epicentre, Madison, WI; MC85200) according to the manufacturer’s instructions, but omitting ProteinaseK or RNaseA treatment. After isolation, DNA was treated with T5 exonuclease (New England Biolabs, Ipswich, MA; M0363S) according to the manufacturer’s instructions.
cccDNA and host mitochondrial DNA (ND4) levels were examined by Southern blot using branched DNA signal amplification (bDNA) method as previously described. All probes and reagents were purchased from Thermo Fisher Scientific.
PHH were infected with HBV for three days prior to initiation of GS-5801 treatment. […] Total DNA was isolated, treated with T5 exonuclease to reduce levels of relaxed circular HBV DNA (rcDNA), and probed for cccDNA and mitochondrial DNA (Mt ND4: NADH-ubiquinone oxidoreductase chain 4) by Southern blot.

[2] = system: HBV (genotype C, GTC); assay: HBV mouse efficacy model (uPA-SCID mice with humanized livers), serum HBV DNA and HBsAg; type: in vivo; conditions: 30 or 100 mg/kg p.o. qd x 7d, one week on one week off, 56 days
Procedure: The in vivo and in vitro hepatocyte infection model portions of the study were performed by PhoenixBio (Higashi-Hiroshima, Japan). […] Mice were infected with HBV GTC virus (PhoenixBio; PBB004, Lot #160205) and had serum HBV titer levels greater than 1.0E+08 copies/mL seven days prior to study initiation. HBV-infected mice were treated once daily (p.o.) for seven days (Day 0–6) with deionized water for acclimation. […] Fifty μL of blood was collected from animals under isoflurane anesthesia via the retro-orbital plexus/sinus and centrifuged for serum collection for HBsAg and HBV DNA measurements described below. At termination of study (Day 56), 100–200 mg of tissue was harvested from the left lateral liver lobe of all animals.
For in vivo mouse studies, serum HBsAg concentrations were determined by SRL, Inc. (Tokyo, Japan) based on the Chemiluminescent Enzyme Immuno Assay (CLEIA) developed by Fujirebio (Lumipulse® Presto II).
HBV DNA was extracted from 5 μL of serum using the SMITEST EX-R&D Nucleic Acid Extraction Kit (Medical & Biological Laboratories, CO. LTD, Nagoya, Japan) and dissolved in 20 μL nuclease-free water (Thermo Fisher Scientific Inc., Waltham, MA). […] The average serum HBV DNA level was calculated from the values of the two separate wells. […]

[3] = biological target: KDM6A (Homo sapiens, UniProt O15550); assay: KDM6A enzymatic assay (AlphaLISA); type: biochemical
Chain of KDM6A (O15550 whole entry): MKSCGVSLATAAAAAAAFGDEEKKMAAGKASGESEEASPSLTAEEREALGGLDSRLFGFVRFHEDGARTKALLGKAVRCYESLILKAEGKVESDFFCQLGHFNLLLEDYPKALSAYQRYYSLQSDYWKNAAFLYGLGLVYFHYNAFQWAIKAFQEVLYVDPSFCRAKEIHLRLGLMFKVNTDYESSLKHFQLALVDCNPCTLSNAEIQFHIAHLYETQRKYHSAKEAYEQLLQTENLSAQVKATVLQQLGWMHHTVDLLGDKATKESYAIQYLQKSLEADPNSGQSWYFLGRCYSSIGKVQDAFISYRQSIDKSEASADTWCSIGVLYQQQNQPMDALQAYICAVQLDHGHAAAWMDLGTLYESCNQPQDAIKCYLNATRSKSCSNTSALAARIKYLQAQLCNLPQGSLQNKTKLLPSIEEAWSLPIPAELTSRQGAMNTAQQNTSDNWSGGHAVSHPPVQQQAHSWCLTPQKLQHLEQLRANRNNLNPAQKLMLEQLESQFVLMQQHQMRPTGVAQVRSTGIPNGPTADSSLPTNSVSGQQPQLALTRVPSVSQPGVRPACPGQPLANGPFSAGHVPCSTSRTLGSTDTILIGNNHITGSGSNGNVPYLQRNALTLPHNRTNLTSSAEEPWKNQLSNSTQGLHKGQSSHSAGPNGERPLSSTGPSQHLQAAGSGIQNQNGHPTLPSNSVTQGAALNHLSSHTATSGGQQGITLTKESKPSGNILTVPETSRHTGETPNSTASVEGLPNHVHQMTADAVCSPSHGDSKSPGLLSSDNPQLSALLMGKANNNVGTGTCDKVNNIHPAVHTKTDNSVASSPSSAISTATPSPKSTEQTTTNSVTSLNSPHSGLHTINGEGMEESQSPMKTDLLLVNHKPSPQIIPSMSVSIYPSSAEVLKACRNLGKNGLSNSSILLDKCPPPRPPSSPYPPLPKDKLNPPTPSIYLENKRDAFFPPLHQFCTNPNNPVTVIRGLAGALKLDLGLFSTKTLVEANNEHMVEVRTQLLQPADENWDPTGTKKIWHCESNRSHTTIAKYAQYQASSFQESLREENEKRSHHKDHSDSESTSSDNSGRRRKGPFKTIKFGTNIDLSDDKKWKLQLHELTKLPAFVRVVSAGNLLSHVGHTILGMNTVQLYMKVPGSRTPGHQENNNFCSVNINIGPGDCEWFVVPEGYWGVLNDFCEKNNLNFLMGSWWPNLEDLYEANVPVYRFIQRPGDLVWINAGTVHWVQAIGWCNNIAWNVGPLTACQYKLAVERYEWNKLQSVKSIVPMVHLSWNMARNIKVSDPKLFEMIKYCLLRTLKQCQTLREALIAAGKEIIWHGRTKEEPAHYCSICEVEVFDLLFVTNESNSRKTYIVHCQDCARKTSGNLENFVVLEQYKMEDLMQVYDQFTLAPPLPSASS
Procedure: The following assay protocol was used for all histone demethylases tested except KDM1A, KDM5A, B, and D, which are described below. Compounds were serially diluted into a 384-well Alpha plate as a DMSO solution and mixed with 5 μL reaction buffer (buffer A) containing 50 mM HEPES (pH 7.0), 0.1% BSA, and 0.003% Tween-20. The enzyme of interest was pre-incubated with 15 μM of Fe^2+ for 10 min (except 30 min for KDM2B) in reaction buffer A. 5 μL of the enzyme mixture was added to each of the compound-containing wells and incubated for 10 min. The reaction was started by addition of a 5 μL mixture containing 300 nM peptide substrate, 75 μM L-ascorbic acid, and 30 μM α-ketoglutarate in buffer A. This final 15 μL of reaction mixture was incubated for 20 min for KDM5B and 1 hour for the other KDM enzymes. The reaction was quenched with 10 μL of diluted AlphaLISA Acceptor beads (1:400) in Epigenetics Buffer and incubated for 60 min. The Donor beads were diluted 1:400 into Epigenetics Buffer in the dark and 10 μL of this was added to each well and incubated for another 60 min in the dark. The assay plates were read on an Enspire plate reader (PerkinElmer) using a standard AlphaLISA program.
Data was analyzed using GraphPad Prism 6.0 (La Jolla, CA). […] IC50 values were calculated as an average of at least two independent experiments.

[4] = Cell-associated GS-080 exposure and half-life in PHH (LC-MS); type: in vitro ADME, human
Procedure: PHH were infected with HBV for three days prior to initiation of GS-5801 treatment. PHH were dosed with vehicle or 1 µM GS-5801once for three days (three day exposure; continuous dosing) or once for two hours (two hour exposure; pulse dosing). […] (C) Pharmacokinetic parameters calculated included the half-life (t1/2), maximum concentration (Cmax), and area under the curve (AUClast).

[5] = Liver to plasma AUC ratio, cynomolgus monkey; type: in vivo, cynomolgus monkeys; conditions: male, liver and plasma, po, 2.5 mg/kg, read-out: GS-080 liver to plasma AUC ratio
Procedure: Rats and monkeys were dosed by oral gavage once with 1 mg/kg or 2.5 mg/kg, respectively. The rat study included a vehicle control group (water). Serial venous blood samples were taken at 0, 0.25, 0.5, 1, 2, 4, 6, 8, 12, and 24 hours post dose from each animal and collected into vacutainer tubes containing potassium oxalate/sodium fluoride (Thermo Fisher; BD367925) as the anti-coagulant and blood was centrifuged for plasma isolation. […] For monkey, liver samples were taken by biopsy at pre-dose, 1, 4, 24, 48, and 72 hours post dose (n = 2 per time point). Rat and monkey livers were weighed and immediately flash frozen in liquid nitrogen.
500 μL of cold HPLC grade water was added to each monkey liver biopsy sample and rat liver samples were diluted 3-fold with cold HPLC grade water. Diluted liver samples were homogenized between 1 and 3 minutes. 50 μL of plasma samples and homogenized liver samples were quenched with 200 μL of 0.05% formic acid in acetonitrile. […] An Agilent 1200 series binary pump (Santa Clara, CA; G1312A) was used for elution and separation of compounds with a Hypersil Gold C18 HPLC column (Thermo Fisher; 50 x 3.0 mm, 5 μm) over 6.75 minutes with 99–3% gradient of Mobile Phase A (1% acetonitrile in 2.5 mM ammonium formate aqueous solution pH 2.6) and 1–97% gradient Mobile Phase B (90% acetonitrile in aqueous 10 mM ammonium formate pH 6.8).

| Fold Selectivity Compared to KDM5A ([3]; IC50 of KDM6A over KDM5A) | IC50 ([3]; enzyme concentration 2 nM) | cell-associated GS-080 Cmax and AUClast, pulse compared to continuous dosing ([4]; PHH dosed with 1 µM GS-5801, two-hour pulse vs three day exposure) | half-life at 1 µM ([4]; human, primary human hepatocytes (PHH), cell-associated, PHH, 1 uM, uninfected PHH) | Kp [5] | SMILES | levels of cccDNA [1] | antiviral efficacy: serum HBsAg and HBV DNA [2] |
| --- | --- | --- | --- | --- | --- | --- | --- |
|  |  |  |  |  | CCOC(=O)c1ccnc(CNCC(=O)N(CC)CCN(C)C)c1 [GS-5801] | did not alter levels of cccDNA; also recorded: does not reduce levels of cccDNA; also recorded: no sign of reduced cccDNA | did not result in changes in the amounts of HBsAg or HBV DNA; also recorded: did not have antiviral activity at either dose tested |
| > 17,200 fold | 6.2 µM | two-fold lower Cmax and AUClast values | 42 to 66 h | 176 | CCN(CCN(C)C)C(=O)CNCc1cc(C(=O)O)ccn1 [GS-080] |  |  |
